One series deals with T1, CB1 receptor (Mus musculus, UniProt P47746).
T1 construct: from tissue; host or cells: mouse (CD1) brain minus cerebellum, membrane homogenate
Briefly: CB1 radioligand binding, [3H]-CP-55,940 competition in mouse brain (minus cerebellum) homogenate. The settings on record: for Ki: mean ± standard error, five independent experiments in triplicate; for CB1-affinity decrease relative to 1a: compared with 1a (Ki 10.25 nM); for Selectivity KiCB2/KiCB1: ratio of KiCB2 to KiCB1. On the procedure:
Radioligand binding experimental procedures previously reported by us were adopted.
(§1) Male CD1 mice weighing 30–35 g were killed by cervical dislocation and the brain (minus cerebellum) and spleen were rapidly removed and frozen. After thawing, tissues were homogenated in 20 vol. (wt/v) of ice-cold TME buffer (50 mM Tris-HCl, 1 mM EDTA and 3.0 mM MgCl2, pH 7.4). The homogenates were centrifuged at 1,086 ×g for 10 min at 4 °C, and the resulting supernatants were centrifuged at 45,000 ×g for 30 min.
(§2) All binding studies were performed in disposable glass tubes pre-treated with Sigma-Cote (Sigma Chemical Co., Ltd., Poole, UK), in order to reduce non-specific binding. The reaction was terminated by rapid filtration through Whatman GF/C filters presoaked in 0.5% polyethyleneimine (PEI) using a Brandell 36-sample harvester (Gaithersburg, MD, USA). Filters were washed five times with 4 mL aliquots of ice-cold Tris HCl buffer (pH 7.4) containing 1 mg/mL BSA. The filter bound radioactivity was measured in a liquid scintillation counter (Tricarb 2900, Packard, Meridien, […], USA) with 4 mL of scintillation fluid (Ultima Gold MV, Packard).
(§3) Protein determination was performed by means of a Bradford protein assay using BSA as a standard according to the protocol of the supplier (Bio-Rad, Milan, Italy).
(§4) All experiments were performed in triplicate and results were confirmed in at least five independent experiments. Data from radioligand inhibition experiments were analysed by nonlinear regression analysis of a Sigmoid Curve using Graph Pad Prism program. IC50 values were derived from the calculated curves and converted to Ki values as previously described.

The target in the next series is T2, CB2 receptor (Mus musculus, UniProt P47936).
T2 construct: from tissue; host or cells: mouse (CD1) spleen, membrane homogenate
T2 sequence (P47936 whole entry): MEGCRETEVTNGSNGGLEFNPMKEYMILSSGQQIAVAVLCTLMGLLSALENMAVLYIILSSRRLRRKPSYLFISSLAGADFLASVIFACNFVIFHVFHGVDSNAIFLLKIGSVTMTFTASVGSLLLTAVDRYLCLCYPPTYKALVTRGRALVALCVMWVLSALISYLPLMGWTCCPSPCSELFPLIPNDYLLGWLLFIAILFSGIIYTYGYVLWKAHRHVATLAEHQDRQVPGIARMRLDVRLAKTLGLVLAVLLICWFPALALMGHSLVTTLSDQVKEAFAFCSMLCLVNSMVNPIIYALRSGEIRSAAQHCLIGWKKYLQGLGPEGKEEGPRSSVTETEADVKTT
Briefly: CB2 radioligand binding, [3H]-CP-55,940 competition in mouse spleen homogenate. Conditions: [3H]-CP-55,940, mouse spleen homogenate; mean ± standard error, five independent experiments in triplicate; read-out: KiCB2. On the procedure: Affinities at CB1R and CB2R for compounds 1c–j were assessed by competition of [^3H]-CP-55,940 in mouse brain (minus cerebellum) and spleen homogenates, respectively. Radioligand binding experimental procedures previously reported by us were adopted.
as §1
as §2, with “[^3H]-CP-55,940 binding was performed using the method previously described by Ruiu et al.. Briefly, the membranes (30–80 µg of protein) were incubated with 0.5–1 nM of [^3H]-CP-55,940 for 1 h at 30 °C in a final volume of 0.5 mL of TME buffer containing 5 mg/mL of fatty acid-free bovine serum albumin. Non-specific binding was estimated in the presence of 1 µM of CP-55,940. All” for “All”
as §3, §4

A further series has as its system CD1 mice. As to the kind of experiment: Gastrointestinal transit (GIT), carmine marker. Format: in vivo, mouse. Conditions: data not shown. From the text:
The mouse isolated vas deferens is a nerve-smooth muscle preparation that serves as a highly sensitive and quantitative functional in vitro bioassay for cannabinoid CB1R agonists. The effect of CB1 agonists is related to the action on naturally expressed prejunctional neuronal CB1Rs to inhibit release of the contractile neurotransmitters, noradrenaline and ATP, which is provoked by electrical stimulation. It has been shown that CB1 antagonist derivatives are able to block or reduce the inhibition of the electrically evoked contraction amplitude of the vas deferens induced by CB1 agonists, with parallel dextral shifts in CB1R agonist log concentration-response curves in electrically stimulated tissues. According to previous studies concerning cannabinoid agents, a gastrointestinal transit test was adopted to confirm CB1 antagonism. […] Moreover, the capability of CB1 antagonist compounds both to block the constipation effect induced by cannabinoid agonists and to themselves increase themselves gastrointestinal motility has been reported.
The same procedure previously reported by Murineddu et al. was adopted to evaluate the effect of the compounds on GIT. CD1 mice weighing 30–35 g were used. Carmine (Sigma Chemical Co, St. Louis, MO, USA) was suspended (6% wt/v) in distilled water containing 0.5% methylcellulose and administered by gavage at the dose of 0.3 mL/mouse. Briefly, after 20 min from carmine administration, mice were sacrificed by cervical dislocation and the stomach and small intestine were removed and the omentum was separated, avoiding stretching. The length of the intestine was measured starting from the pyloric sphincter to the ileocecal junction. The distance travelled by the head of the marker was measured and expressed as a percent of the total length of the small intestine. Using this procedure, the marker was consistently found at approximately 50% of the small intestine, 20 min after its administration to naive mice.
20 min later, mice were killed by dislocation cervical and intestines were removed. […] The length of the intestine from the pyloric sphincter to the ileocecal junction and the distance travelled by the carmine front were both measured and recorded. Groups of n = 10 mice were used in each experiment.
Statistical analyses were performed by one-way ANOVA followed by Newman-Keuls post-hoc comparison.

The next series has as its system C57Bl6/J mice. As to the kind of experiment: Acute food intake in fasted mice. Format: in vivo, mouse. On the procedure: To further evaluate the potential application of these CB1 antagonists in the control of food intake and in obesity treatment, compound 1b was preliminarily tested in comparison with SR141716A in an acute in vivo assay using C57Bl6/J mice. The evaluation was carried out according to the animal model previously reported by Di Marzo [19].
It is well known that CB1Rs mediate the hyperphagic effect of cannabinoids. […] To test the potential anti-obesity effect of the new CB1 antagonist 1b we performed food intake experiments according to the acute animal model described by Di Marzo [19]. For a comparison we also reported the results concerning the assumed lead compound of this new series, derivative 1a.
A widely described method was used for the screening of the new CB1 antagonists in the food intake animal model. C57Bl6/J mice weighing 20–25 g were housed individually on a reverse light-dark cycle in a room with temperature and humidity control. The mice were fasted for 18 h before testing. Vehicle or CB1 antagonists were administered by an intraperitoneal injection and 15 min later a known amount of food was presented. Food pellets were weighed after each hour for three hours. Rimonabant was used as internal positive control in order to evaluate the efficacy of each compound. All animal experiments were performed according to the UE (CEE N° 86/609) guidelines for the care and use of experimental animals.
Two-way ANOVA with Bonferroni post-testing was performed using GraphPad Prism version 5.00 for Windows (GraphPad Software, San Diego CA, USA).

[1] abbreviates: [3H]-CP 55,940, mouse brain (minus cerebellum) homogenate, read-out: KiCB1.

The term melting point denotes the temperature, or range, at which the solid turns liquid.

Values joined by “and” are separate entries in the source; they are usually repeats but may differ in a detail not shown here. Equal values may be shown once. Read-outs that look alike come from different tables or passages of the source.

T1 sequence (P47746 whole entry): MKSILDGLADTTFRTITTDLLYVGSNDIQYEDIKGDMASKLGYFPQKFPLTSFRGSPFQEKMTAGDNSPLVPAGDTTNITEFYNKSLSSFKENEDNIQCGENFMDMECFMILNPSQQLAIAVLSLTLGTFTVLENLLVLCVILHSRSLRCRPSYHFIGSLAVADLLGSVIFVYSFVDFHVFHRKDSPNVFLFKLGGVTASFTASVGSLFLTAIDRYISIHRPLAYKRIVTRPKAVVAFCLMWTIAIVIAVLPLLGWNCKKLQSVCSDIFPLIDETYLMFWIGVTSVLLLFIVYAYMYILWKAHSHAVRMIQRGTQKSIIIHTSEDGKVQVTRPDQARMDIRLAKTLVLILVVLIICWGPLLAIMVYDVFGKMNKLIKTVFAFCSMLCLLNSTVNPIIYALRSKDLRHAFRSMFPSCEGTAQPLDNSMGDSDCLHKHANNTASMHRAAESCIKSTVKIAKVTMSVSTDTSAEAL

The compound `O=C(Nc1ccc(Cl)cc1)c1nn(-c2ccc(Cl)cc2Cl)c2c1CCOc1cc(Cl)ccc1-2` [Compound 1g, 8-Chloro-1-(2,4-dichlorophenyl)-N-(p-chlorophenyl)-4,5-dihydrobenzo-1H-6-oxa-cyclohepta[1,2-c]pyrazole-3-carboxamide] came in with a melting point of 239 °C. Also, the Ki at CB1 receptor (setting [1]) was 318 ± 36 nM. For the same compound, the Ki on CB2 receptor was more than 5000 nM.
For `COc1ccc(NC(=O)c2nn(-c3ccc(Cl)cc3Cl)c3c2CCOc2cc(Cl)ccc2-3)cc1` [Compound 1i, 8-Chloro-1-(2,4-dichlorophenyl)-N-(p-methoxyphenyl)-4,5-dihydrobenzo-1H-6-oxa-cyclohepta[1,2-c]pyrazole-3-carboxamide], the melting point came out at 214 °C. Further, on CB1 receptor (setting [1]), the Ki worked out at 330 ± 45 nM. In addition, on CB2 receptor, the Ki is more than 5000 nM.
For the compound `O=C(NN1CCCCCC1)c1nn(-c2ccc(Cl)cc2Cl)c2c1CCOc1cc(Cl)ccc1-2` [Compound 1d, 8-Chloro-1-(2,4-dichlorophenyl)-N-homopiperidin-1-yl-4,5-dihydrobenzo-1H-6-oxa-cyclohepta[1,2-c]pyrazole-3-carbohydrazide], the melting point was 137 to 138 °C. In addition, the “Effect on gastrointestinal transit compared with that of 1b” value with CD1 mice was “Analogue results”. The Ki at CB1 receptor (setting [1]) is < 60 nM and 35 nM. Further, at CB1 receptor, the “CB1-affinity decrease relative to 1a” value was determined as 3.5 fold and the “Selectivity KiCB2/KiCB1” value was more than 57. Moreover, at CB2 receptor, the Ki turned out to be 2000 ± 50 nM.
As for `O=C(Nc1ccccc1)c1nn(-c2ccc(Cl)cc2Cl)c2c1CCOc1cc(Cl)ccc1-2` [Compound 1f, 8-Chloro-1-(2,4-dichlorophenyl)-N-phenyl-4,5-dihydrobenzo-1H-6-oxa-cyclohepta[1,2-c]pyrazole-3-carboxamide], the melting point worked out at 130 °C. For the same compound, the Ki on CB1 receptor (setting [1]) amounted to 233 ± 33 nM. The “CB1-affinity decrease relative to 1a” value on CB1 receptor is listed as 23 fold. The Ki at CB2 receptor was 4120 ± 620 nM.
As for `Cc1c(C(=O)NN2CCCCC2)nn(-c2ccc(Cl)cc2Cl)c1-c1ccc(Cl)cc1` [rimonabant, N-piperidinyl-5-(4-chlorophenyl)-1-(2,4-dichlorophenyl)-4-methyl-1H-pyrazole-3-carboxamide, reference compound], the “Food intake effect over time” value in the series with C57Bl6/J mice (10 mg/kg i.p., at 2 h and 3 h) is “fades away”. In the series with C57Bl6/J mice (20 mg/kg (highest assayed dosage)), the “Observable side effects / behavioural effects” value is given as “marked behavioural effects”.
`Cc1ccc(NC(=O)c2nn(-c3ccc(Cl)cc3Cl)c3c2CCOc2cc(Cl)ccc2-3)cc1` [Compound 1h, 8-Chloro-1-(2,4-dichlorophenyl)-N-tolyl-4,5-dihydrobenzo-1H-6-oxa-cyclohepta[1,2-c] pyrazole-3-carboxamide] registered a melting point of 181 °C. This compound also returned a Ki at CB1 receptor (KiCB1, [3H]-CP 55,940, mouse brain (minus cerebellum) homogenate) of 429 ± 49 nM. In addition, at CB2 receptor, the Ki is more than 5000 nM.
In turn, `O=C(Nc1ccc(C(F)(F)F)cc1)c1nn(-c2ccc(Cl)cc2Cl)c2c1CCOc1cc(Cl)ccc1-2` [Compound 1j] came in with a melting point of 249 to 250 °C. Also, the Ki at CB1 receptor (setting [1]) was determined as 459 ± 57 nM. For the same compound, the Ki on CB2 receptor is more than 5000 nM.
`O=C(NN1CCCC1)c1nn(-c2ccc(Cl)cc2Cl)c2c1CCOc1cc(Cl)ccc1-2` [Compound 1c, 8-Chloro-1-(2,4-dichlorophenyl)-N-pyrrolidin-1-yl-4,5-dihydrobenzo-1H-6-oxa-cyclohepta[1,2-c]pyrazole-3-carbohydrazide] had a melting point of 175 °C. Besides, the “Effect on gastrointestinal transit compared with that of 1b” value with CD1 mice is on record as “Analogue results”. In addition, on CB1 receptor (setting [1]), the Ki was < 60 nM and 55.1 nM. At CB1 receptor, the “CB1-affinity decrease relative to 1a” value is 5.4 fold and the “Selectivity KiCB2/KiCB1” value is recorded as more than 57. The Ki at CB2 receptor is 4500 ± 500 nM.

Values taken from article PMC6539809, “Development of Oxygen-Bridged Pyrazole-Based Structures as Cannabinoid Receptor 1 Ligands” (Molecules, 2019).
